According to patent US9409952B2, “Peptide-compound cyclization method” (Chugai Seiyaku Kabushiki Kaisha, priority 2011, dated 2016):
Where two headings read alike, the source gives them in different places. Starred links: 1 amine or outer side, 2 acyl side, 3 side chain; linkers in the order of their positions; H or OH if unused. Positions of bridges follow the written chain, without caps; N, C: chain ends. Non-standard residues stand in square brackets, D forms with d. Residues, ends and D or L forms follow the SMILES beside them. *: point of attachment. Phe(4-(CH2)5CO) = O=C([C@H](Cc1ccc(CCCCCC(=O)[*:3])cc1)N[*:1])[*:2]; Phe(3-(CH2)4CO) = O=C([C@H](Cc1cccc(CCCCC(=O)[*:3])c1)N[*:1])[*:2]; NEtPhe = CCN[C@@H](Cc1ccccc1)C(=O)O; NMeF = CN[C@@H](Cc1ccccc1)C(=O)O; NMeI = CC[C@H](C)[C@H](NC)C(=O)O; NMeL = CN[C@@H](CC(C)C)C(=O)O; NMeV = CN[C@H](C(=O)O)C(C)C; NMeA = CN[C@@H](C)C(=O)O; Piperidide = C1CCN(*)CC1; Sar = CNCC(=O)O; tBu = CC(C)(C)*

How the values were obtained:
[1] = Metabolic stability in human hepatic microsome; assay type: in vitro ADME; conditions: microsomes
[2] = PAMPA (parallel artificial membrane permeability assay); assay type: in vitro ADME; conditions: for Papp at 18 hours, 50 µM: PAMPA
Outline: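 Artificial membrane was 10% (w/v) egg lecithin plus 0.5% (w/v) cholesterol in dodecane on a PVDF filter. A 10 mM DMSO stock was added at 0.5% (v/v) to donor buffer (50 mM MOPSO, pH 6.5, 5.0% glycocholic acid). After 18 h at 37 °C, LC/MS or LC/UV gave donor and acceptor levels for Pe.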

[3] = pH 7.4, human hepatic microsome, NADPH(+), read-out: CL NADPH(+)
[4] = membrane permeation rate (Pe), 50 mM MOPSO buffer pH 6.5 with 5.0% glycocholic acid, 37° C., 18 hours, read-out: iPAMPA Pe
[5] = membrane permeation rate (Pe), 50 mM MOPSO buffer pH 6.5 with 5.0% glycocholic acid, 37° C., 18 hours

SMILES	microsomal CLint at 1 uM ([1]; human, pH 7.4, CL NADPH(+))	Papp at 18 hours, 50 µM ([2]; pH 6.5)	microsomal CLint at 1 uM [1, 3]	Papp at 18 hours, 50 µM [2, 4]	iPAMPA Pe [2, 5]
CC(C)C[C@H]1C(=O)N[C@H](C(=O)N2CCCCC2)Cc2cccc(c2)CCCCC(=O)N(C)[C@@H](Cc2ccccc2)C(=O)NCC(=O)N(C)[C@@H](Cc2ccccc2)C(=O)N(C)[C@@H](CC(C)C)C(=O)N(C)[C@@H](CC(C)C)C(=O)N1C [DP-844] ([NMeF]G[NMeF][NMeL][NMeL][NMeL][Phe(3-(CH2)4CO)]-Piperidide; lactam N-7)	356 µL/min/mg	110 nm/s	–	–	–
C=C1CCC(=O)N[C@@H](C)C(=O)N(C)[C@@H](CC(C)C)C(=O)N[C@@H]([C@@H](C)CC)C(=O)N(C)[C@@H](Cc2ccccc2)C(=O)N(C)[C@@H](CC(C)C)C(=O)N(C)[C@@H](C(C)C)C(=O)N[C@@H](Cc2ccccc2)C(=O)N[C@@H]([C@@H](C)O)C(=O)N[C@H](C(=O)N2CCCCC2)Cc2cccc1c2 [DP-846]	310 µL/min/mg	34 nm/s	–	–	–
CC[C@H](C)[C@H]1C(=O)N(C)[C@@H](CC(C)C)C(=O)N(C)[C@@H](Cc2ccccc2)C(=O)N[C@@H](CC(C)C)C(=O)N(C)[C@@H](C(C)C)C(=O)N[C@@H](Cc2ccccc2)C(=O)N[C@@H]([C@@H](C)O)C(=O)N[C@H](C(=O)N2CCCCC2)Cc2ccc(cc2)CCCCCC(=O)N[C@@H](C)C(=O)N1C [DP-847] (A[NMeI][NMeL][NMeF]L[NMeV]FT[Phe(4-(CH2)5CO)]-Piperidide; lactam N-9)	–	–	329 µL/min/mg	33 nm/s	–
CC(C)C[C@H]1C(=O)N[C@@H](COC(C)(C)C)C(=O)N(C)[C@@H](Cc2ccccc2)C(=O)N(C)[C@@H](C)C(=O)N[C@@H](Cc2ccccc2)C(=O)N(C)[C@@H](C(C)C)C(=O)N[C@H](C(=O)N2CCCCC2)Cc2ccc(cc2)CCCCCC(=O)N[C@@H]([C@@H](C)O)C(=O)NCC(=O)N1C [DP-848] (TG[NMeL]S(tBu)[NMeF][NMeA]F[NMeV][Phe(4-(CH2)5CO)]-Piperidide; lactam N-9)	–	–	148 µL/min/mg	300 nm/s	–
CC[C@H](C)[C@H]1C(=O)N[C@@H](COC(C)(C)C)C(=O)N(C)[C@@H](Cc2ccccc2)C(=O)N(C)[C@@H](C(C)C)C(=O)N[C@H](C(=O)N2CCCCC2)Cc2ccc(cc2)CCCCCC(=O)N(C)[C@@H](Cc2ccccc2)C(=O)N[C@@H](CC(C)C)C(=O)N(C)[C@@H](CC(C)C)C(=O)N[C@@H]([C@@H](C)O)C(=O)N(C)CC(=O)N1C [DP-852] ([NMeF]L[NMeL]T[Sar][NMeI]S(tBu)[NMeF][NMeV][Phe(4-(CH2)5CO)]-Piperidide; lactam N-10)	–	–	484 µL/min/mg	7 nm/s	–
CC[C@H](C)[C@H]1C(=O)N[C@@H]([C@@H](C)O)C(=O)N(C)CC(=O)N(C)[C@@H](CC(C)C)C(=O)N[C@H](C(=O)N2CCCCC2)Cc2ccc(cc2)CCCCCC(=O)N[C@@H](CC(C)C)C(=O)N(C)[C@@H](CC(C)C)C(=O)N(C)[C@@H](Cc2ccccc2)C(=O)N[C@@H](C)C(=O)N(C)[C@@H](Cc2ccccc2)C(=O)N1C [DP-856] (L[NMeL][NMeF]A[NMeF][NMeI]T[Sar][NMeL][Phe(4-(CH2)5CO)]-Piperidide; lactam N-10)	–	–	183 µL/min/mg	4.4 nm/s	–
CC(C)C[C@H]1C(=O)N(C)[C@@H](CC(C)C)C(=O)N[C@@H](C)C(=O)N(C)[C@@H](CC(C)C)C(=O)N(C)[C@@H](Cc2ccccc2)C(=O)N(C)[C@@H](Cc2ccccc2)C(=O)N[C@@H]([C@@H](C)O)C(=O)N(C)[C@@H](C)C(=O)N(C)[C@@H](CC(C)C)C(=O)N[C@H](C(=O)N2CCCCC2)Cc2ccc(cc2)CCCCCC(=O)N1C [DP-858] ([NMeL][NMeL]A[NMeL][NMeF][NMeF]T[NMeA][NMeL][Phe(4-(CH2)5CO)]-Piperidide; lactam N-10)	–	–	77 µL/min/mg	10 nm/s	–
CC[C@H](C)[C@@H]1NC(=O)[C@H](Cc2ccccc2)N(C)C(=O)CCCCCc2ccc(cc2)C[C@@H](C(=O)N2CCCCC2)NC(=O)[C@H](C(C)C)N(C)C(=O)[C@H](Cc2ccccc2)N(C)C(=O)[C@H](COC(C)(C)C)NC(=O)[C@H](CC(C)C)N(C)C(=O)CN(C)C(=O)[C@H]([C@@H](C)O)NC(=O)[C@H](CC(C)C)N(C)C1=O [DP-861] ([NMeF]I[NMeL]T[Sar][NMeL]S(tBu)[NMeF][NMeV][Phe(4-(CH2)5CO)]-Piperidide; lactam N-10)	–	–	320 µL/min/mg	29 nm/s	–
CC[C@H](C)[C@@H]1NC(=O)[C@H](CC(C)C)N(C)C(=O)CCCCc2cccc(c2)C[C@@H](C(=O)N2CCCCC2)NC(=O)[C@H](CC(C)C)N(C)C(=O)[C@H](C)N(C)C(=O)[C@H]([C@@H](C)O)NC(=O)[C@H](CC(C)C)N(C)C(=O)[C@H](COC(C)(C)C)NC(=O)[C@H](Cc2ccccc2)N(C)C(=O)[C@H](Cc2ccccc2)N(C)C1=O [DP-862] ([NMeL]I[NMeF][NMeF]S(tBu)[NMeL]T[NMeA][NMeL][Phe(3-(CH2)4CO)]-Piperidide; lactam N-10)	–	–	118 µL/min/mg	–	1.0E−07
CCN1C(=O)CCCCc2cccc(c2)C[C@@H](C(=O)N2CCCCC2)NC(=O)[C@H](CC(C)C)N(C)C(=O)CN(C)C(=O)[C@H]([C@@H](C)O)NC(=O)[C@H](CC(C)C)N(C)C(=O)[C@H](Cc2ccccc2)N(C)C(=O)[C@H](C)NC(=O)[C@@H]1Cc1ccccc1 [DP-863] ([NEtPhe]A[NMeF][NMeL]T[Sar][NMeL][Phe(3-(CH2)4CO)]-Piperidide; lactam N-8)	927 µL/min/mg	350 nm/s	–	–	–
C=C1CCC(=O)N[C@@H](CC(C)C)C(=O)N(C)[C@@H](CC(C)C)C(=O)N(C)[C@@H]([C@@H](C)CC)C(=O)N[C@@H](C)C(=O)N(C)[C@@H](Cc2ccccc2)C(=O)N[C@@H]([C@@H](C)O)C(=O)N(C)CC(=O)N(C)[C@@H](Cc2ccccc2)C(=O)N(C)[C@@H](CC(C)C)C(=O)N[C@H](C(=O)N2CCCCC2)Cc2ccc1cc2 [DP-864]	–	–	171 µL/min/mg	23 nm/s	–
CC[C@H](C)[C@H]1C(=O)N[C@@H](C)C(=O)N(C)[C@@H](Cc2ccccc2)C(=O)N[C@@H]([C@@H](C)O)C(=O)N(C)[C@@H](CC(C)C)C(=O)N[C@@H](Cc2ccccc2)C(=O)N(C)[C@@H](C(C)C)C(=O)N[C@H](C(=O)N2CCCCC2)Cc2ccc(cc2)CCCCCC(=O)NCC(=O)N(C)[C@@H](CC(C)C)C(=O)N1C [DP-865] (G[NMeL][NMeI]A[NMeF]T[NMeL]F[NMeV][Phe(4-(CH2)5CO)]-Piperidide; lactam N-10)	–	–	87 µL/min/mg	150 nm/s	–
CC[C@H](C)[C@@H]1NC(=O)CCCCCc2ccc(cc2)C[C@@H](C(=O)N2CCCCC2)NC(=O)[C@H](Cc2ccccc2)N(C)C(=O)[C@H](CC(C)C)N(C)C(=O)[C@H](C)N(C)C(=O)[C@H](Cc2ccccc2)N(C)C(=O)[C@H]([C@@H](C)O)NC(=O)[C@H](CC(C)C)N(C)C(=O)[C@H](C)N(C)C(=O)[C@H](CC(C)C)N(C)C1=O [DP-868] (I[NMeL][NMeA][NMeL]T[NMeF][NMeA][NMeL][NMeF][Phe(4-(CH2)5CO)]-Piperidide; lactam N-10)	–	–	61 µL/min/mg	2.4 nm/s	–
C=C1CCC(=O)N[C@@H](CC(C)C)C(=O)N2CCC[C@H]2C(=O)N(C)[C@@H](C(C)C)C(=O)N[C@@H](Cc2ccccc2)C(=O)N(C)[C@@H](Cc2ccccc2)C(=O)N(C)[C@@H](CC(C)C)C(=O)N[C@@H](C)C(=O)N(C)[C@@H]([C@@H](C)CC)C(=O)N[C@H](C(=O)N2CCCCC2)Cc2ccc1cc2 [DP-869]	–	–	331 µL/min/mg	8.6 nm/s	–
CC[C@H](C)[C@H]1C(=O)N[C@H](C(=O)N2CCCCC2)Cc2ccc(cc2)CCCCCC(=O)N[C@@H](CC(C)C)C(=O)N2CCC[C@H]2C(=O)N(C)[C@@H](C(C)C)C(=O)N[C@@H](Cc2ccccc2)C(=O)N(C)[C@@H](Cc2ccccc2)C(=O)N(C)[C@@H](CC(C)C)C(=O)N[C@@H](C)C(=O)N1C [DP-871] (LP[NMeV]F[NMeF][NMeL]A[NMeI][Phe(4-(CH2)5CO)]-Piperidide; lactam N-9)	–	–	389 µL/min/mg	12 nm/s	–
CC[C@H](C)[C@H]1C(=O)N[C@H](C(=O)N2CCCCC2)Cc2cccc(c2)CCCCC(=O)N[C@@H](CC(C)C)C(=O)N2CCC[C@H]2C(=O)N(C)[C@@H](C(C)C)C(=O)N[C@@H](Cc2ccccc2)C(=O)N(C)[C@@H](Cc2ccccc2)C(=O)N(C)[C@@H](CC(C)C)C(=O)N[C@@H](C)C(=O)N1C [DP-872] (LP[NMeV]F[NMeF][NMeL]A[NMeI][Phe(3-(CH2)4CO)]-Piperidide; lactam N-9)	–	–	397 µL/min/mg	31 nm/s	–
CC[C@H](C)[C@H]1C(=O)N[C@@H](C)C(=O)N(C)[C@@H](CC(C)C)C(=O)N[C@@H](COC(C)(C)C)C(=O)N(C)[C@@H](CC(C)C)C(=O)N[C@H](C(=O)N2CCCCC2)Cc2ccc(cc2)CCCCCC(=O)N[C@@H](Cc2ccccc2)C(=O)N(C)[C@@H](Cc2ccccc2)C(=O)N(C)[C@@H](CC(C)C)C(=O)N[C@@H]([C@@H](C)O)C(=O)N(C)[C@@H](C)C(=O)N1C [DP-873] (F[NMeF][NMeL]T[NMeA][NMeI]A[NMeL]S(tBu)[NMeL][Phe(4-(CH2)5CO)]-Piperidide; lactam N-11)	–	–	39 µL/min/mg	–	1.0E−07
CC[C@H](C)[C@H]1C(=O)N[C@@H](C)C(=O)N(C)[C@@H](CC(C)C)C(=O)N[C@@H](COC(C)(C)C)C(=O)N(C)[C@@H](CC(C)C)C(=O)N[C@H](C(=O)N2CCCCC2)Cc2cccc(c2)CCCCC(=O)N[C@@H](Cc2ccccc2)C(=O)N(C)[C@@H](Cc2ccccc2)C(=O)N(C)[C@@H](CC(C)C)C(=O)N[C@@H]([C@@H](C)O)C(=O)N(C)[C@@H](C)C(=O)N1C [DP-874] (F[NMeF][NMeL]T[NMeA][NMeI]A[NMeL]S(tBu)[NMeL][Phe(3-(CH2)4CO)]-Piperidide; lactam N-11)	–	–	48 µL/min/mg	1.5 nm/s	–
